How the values were obtained:
Conditions in all cases: for ΔTm: Compound concentration 10.0 uM
[1] = target: T1, Ephrin type-B receptor 3 (Homo sapiens) (UniProt P54753); experiment: EPHB3 SGC Tm panel (DSF)
T1 sequence (whole entry): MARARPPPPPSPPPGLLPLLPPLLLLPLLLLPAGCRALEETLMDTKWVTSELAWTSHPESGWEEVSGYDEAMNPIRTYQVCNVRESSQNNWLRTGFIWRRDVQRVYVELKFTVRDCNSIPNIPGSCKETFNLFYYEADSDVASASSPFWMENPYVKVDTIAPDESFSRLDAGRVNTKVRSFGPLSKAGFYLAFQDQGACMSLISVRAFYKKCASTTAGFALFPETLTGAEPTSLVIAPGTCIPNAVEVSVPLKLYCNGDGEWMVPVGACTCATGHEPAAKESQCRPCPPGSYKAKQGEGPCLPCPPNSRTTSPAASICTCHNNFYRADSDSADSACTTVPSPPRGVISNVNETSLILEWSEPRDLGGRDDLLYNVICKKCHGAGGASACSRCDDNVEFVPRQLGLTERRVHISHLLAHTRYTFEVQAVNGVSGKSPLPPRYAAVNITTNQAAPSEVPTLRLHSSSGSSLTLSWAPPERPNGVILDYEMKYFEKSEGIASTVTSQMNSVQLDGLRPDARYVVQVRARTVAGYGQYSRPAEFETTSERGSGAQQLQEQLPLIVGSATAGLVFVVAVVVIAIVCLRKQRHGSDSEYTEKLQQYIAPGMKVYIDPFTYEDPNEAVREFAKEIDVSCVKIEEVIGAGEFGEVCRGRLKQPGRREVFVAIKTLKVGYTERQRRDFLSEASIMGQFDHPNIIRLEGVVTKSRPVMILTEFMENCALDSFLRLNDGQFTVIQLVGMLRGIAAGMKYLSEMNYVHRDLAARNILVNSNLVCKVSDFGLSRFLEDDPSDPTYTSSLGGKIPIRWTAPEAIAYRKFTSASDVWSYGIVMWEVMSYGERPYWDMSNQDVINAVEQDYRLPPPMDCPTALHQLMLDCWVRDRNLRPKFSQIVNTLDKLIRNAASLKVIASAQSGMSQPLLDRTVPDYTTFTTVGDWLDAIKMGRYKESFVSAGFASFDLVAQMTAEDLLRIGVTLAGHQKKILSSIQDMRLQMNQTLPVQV

[2] = target: T2, Dual specificity mitogen-activated protein kinase kinase 6 (Homo sapiens) (UniProt P52564); experiment: MAP2K6 SGC Tm panel (DSF)
T2 sequence (whole entry): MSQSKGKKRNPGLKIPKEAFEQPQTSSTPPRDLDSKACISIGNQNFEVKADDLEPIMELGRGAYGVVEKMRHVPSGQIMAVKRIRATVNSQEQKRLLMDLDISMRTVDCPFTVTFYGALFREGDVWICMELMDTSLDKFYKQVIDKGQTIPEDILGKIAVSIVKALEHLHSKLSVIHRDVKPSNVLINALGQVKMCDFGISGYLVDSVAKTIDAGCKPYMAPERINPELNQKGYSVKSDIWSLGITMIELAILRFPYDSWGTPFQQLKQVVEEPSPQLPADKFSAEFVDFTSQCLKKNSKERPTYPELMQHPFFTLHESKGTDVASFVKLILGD

[3] = target: Serine/threonine-protein kinase Chk2 (Homo sapiens) (UniProt O96017); experiment: CHEK2 SGC Tm panel (DSF)
Sequence of Serine/threonine-protein kinase Chk2 (Homo sapiens) (O96017 whole entry): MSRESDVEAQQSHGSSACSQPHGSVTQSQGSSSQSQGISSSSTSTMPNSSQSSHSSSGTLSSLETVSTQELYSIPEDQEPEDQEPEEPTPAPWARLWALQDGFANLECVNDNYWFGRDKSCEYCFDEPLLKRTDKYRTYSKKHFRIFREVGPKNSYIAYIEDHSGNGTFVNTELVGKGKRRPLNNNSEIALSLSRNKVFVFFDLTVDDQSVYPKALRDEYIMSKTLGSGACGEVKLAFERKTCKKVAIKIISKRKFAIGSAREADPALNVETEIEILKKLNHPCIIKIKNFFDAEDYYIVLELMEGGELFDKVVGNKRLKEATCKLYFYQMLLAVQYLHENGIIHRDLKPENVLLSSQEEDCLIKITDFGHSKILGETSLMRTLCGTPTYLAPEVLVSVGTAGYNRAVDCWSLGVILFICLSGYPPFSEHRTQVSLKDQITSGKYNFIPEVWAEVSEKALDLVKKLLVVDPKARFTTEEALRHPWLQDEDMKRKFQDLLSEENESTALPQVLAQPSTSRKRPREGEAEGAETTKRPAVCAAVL

[4] = target: Ephrin type-A receptor 2 (Homo sapiens) (UniProt P29317); experiment: EPHA2 SGC Tm panel (DSF)
Sequence of Ephrin type-A receptor 2 (Homo sapiens) (P29317 whole entry): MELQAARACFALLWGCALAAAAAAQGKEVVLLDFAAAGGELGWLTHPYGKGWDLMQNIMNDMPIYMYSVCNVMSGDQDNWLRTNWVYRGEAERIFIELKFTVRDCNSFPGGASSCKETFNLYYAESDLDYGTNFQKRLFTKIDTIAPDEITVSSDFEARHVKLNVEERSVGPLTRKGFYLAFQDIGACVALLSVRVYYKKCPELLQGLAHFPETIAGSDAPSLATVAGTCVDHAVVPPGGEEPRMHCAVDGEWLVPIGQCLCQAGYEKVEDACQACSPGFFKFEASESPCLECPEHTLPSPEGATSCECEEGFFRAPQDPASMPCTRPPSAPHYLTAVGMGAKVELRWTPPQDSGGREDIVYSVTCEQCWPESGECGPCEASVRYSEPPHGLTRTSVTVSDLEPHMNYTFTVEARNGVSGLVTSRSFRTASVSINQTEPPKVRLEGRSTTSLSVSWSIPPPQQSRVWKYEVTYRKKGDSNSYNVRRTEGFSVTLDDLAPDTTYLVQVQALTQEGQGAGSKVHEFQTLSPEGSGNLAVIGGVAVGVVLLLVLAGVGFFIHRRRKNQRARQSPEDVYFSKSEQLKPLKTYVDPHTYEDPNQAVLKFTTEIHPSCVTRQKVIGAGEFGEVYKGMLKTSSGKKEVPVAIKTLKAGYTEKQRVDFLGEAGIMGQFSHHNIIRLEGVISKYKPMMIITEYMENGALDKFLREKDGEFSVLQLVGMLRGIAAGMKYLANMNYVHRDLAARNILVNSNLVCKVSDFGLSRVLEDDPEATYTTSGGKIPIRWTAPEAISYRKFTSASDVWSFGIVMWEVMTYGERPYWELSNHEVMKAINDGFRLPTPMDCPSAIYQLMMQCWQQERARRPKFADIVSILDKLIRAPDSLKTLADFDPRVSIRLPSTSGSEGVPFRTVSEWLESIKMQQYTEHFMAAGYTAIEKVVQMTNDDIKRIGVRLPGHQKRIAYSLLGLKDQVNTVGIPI

[5] = target: MAP/microtubule affinity-regulating kinase 3 (Homo sapiens) (UniProt P27448); experiment: MARK3 SGC Tm panel (DSF)
Sequence of MAP/microtubule affinity-regulating kinase 3 (Homo sapiens) (P27448 whole entry, looked up): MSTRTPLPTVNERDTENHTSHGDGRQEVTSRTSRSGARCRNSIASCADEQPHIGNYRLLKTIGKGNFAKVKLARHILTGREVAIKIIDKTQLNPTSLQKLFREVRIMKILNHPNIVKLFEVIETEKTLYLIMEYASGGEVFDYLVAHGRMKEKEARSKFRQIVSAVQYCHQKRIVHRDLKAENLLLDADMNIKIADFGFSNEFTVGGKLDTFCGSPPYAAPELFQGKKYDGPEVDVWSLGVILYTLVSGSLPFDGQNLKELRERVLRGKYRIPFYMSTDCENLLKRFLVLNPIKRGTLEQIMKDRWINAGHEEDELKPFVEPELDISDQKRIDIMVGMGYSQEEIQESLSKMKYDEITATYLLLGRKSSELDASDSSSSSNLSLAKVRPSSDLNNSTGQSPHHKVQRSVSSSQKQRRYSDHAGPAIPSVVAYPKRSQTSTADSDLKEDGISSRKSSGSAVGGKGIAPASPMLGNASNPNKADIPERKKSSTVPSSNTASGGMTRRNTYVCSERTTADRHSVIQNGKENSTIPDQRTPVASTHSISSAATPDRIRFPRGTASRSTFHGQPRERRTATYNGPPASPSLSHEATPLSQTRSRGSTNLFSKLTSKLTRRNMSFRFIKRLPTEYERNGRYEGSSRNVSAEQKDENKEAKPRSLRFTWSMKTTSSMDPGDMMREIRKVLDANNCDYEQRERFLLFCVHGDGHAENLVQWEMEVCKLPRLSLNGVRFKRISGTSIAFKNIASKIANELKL

[6] = target: T3, Serine/threonine-protein kinase PLK4 (Homo sapiens) (UniProt O00444); experiment: PLK4 SGC Tm panel (DSF)
T3 sequence (whole entry): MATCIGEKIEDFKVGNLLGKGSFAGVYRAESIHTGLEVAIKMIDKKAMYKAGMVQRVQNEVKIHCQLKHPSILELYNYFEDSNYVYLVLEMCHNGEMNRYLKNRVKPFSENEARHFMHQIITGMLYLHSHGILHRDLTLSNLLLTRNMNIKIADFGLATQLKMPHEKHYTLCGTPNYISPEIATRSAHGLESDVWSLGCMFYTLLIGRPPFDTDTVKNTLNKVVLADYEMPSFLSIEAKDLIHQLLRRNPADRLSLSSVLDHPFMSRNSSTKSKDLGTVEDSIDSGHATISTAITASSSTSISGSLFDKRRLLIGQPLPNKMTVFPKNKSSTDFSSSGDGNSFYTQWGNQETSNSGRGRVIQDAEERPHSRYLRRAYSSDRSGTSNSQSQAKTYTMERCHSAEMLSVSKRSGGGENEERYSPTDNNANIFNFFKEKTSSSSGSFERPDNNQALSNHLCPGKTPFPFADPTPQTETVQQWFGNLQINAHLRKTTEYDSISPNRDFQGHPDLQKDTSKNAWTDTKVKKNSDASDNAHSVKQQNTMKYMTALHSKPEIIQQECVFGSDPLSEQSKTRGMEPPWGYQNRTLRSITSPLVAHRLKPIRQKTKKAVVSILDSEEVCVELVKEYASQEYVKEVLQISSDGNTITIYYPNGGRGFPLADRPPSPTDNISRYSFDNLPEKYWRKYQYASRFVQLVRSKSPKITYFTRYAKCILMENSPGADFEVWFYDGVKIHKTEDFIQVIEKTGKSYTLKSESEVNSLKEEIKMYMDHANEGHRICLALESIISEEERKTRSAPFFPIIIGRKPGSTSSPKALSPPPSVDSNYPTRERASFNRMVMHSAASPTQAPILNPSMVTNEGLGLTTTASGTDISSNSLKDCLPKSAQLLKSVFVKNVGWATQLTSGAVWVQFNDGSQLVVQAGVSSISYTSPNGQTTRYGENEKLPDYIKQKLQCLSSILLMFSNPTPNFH

Row | SMILES | delta Tm Staurosporine positive control [1] | ΔTm [1] | delta Tm Staurosporine positive control [2] | ΔTm [2] | delta Tm Staurosporine positive control [3] | ΔTm [3] | delta Tm Staurosporine positive control [4] | ΔTm [4] | delta Tm Staurosporine positive control [5] | ΔTm [5] | delta Tm Staurosporine positive control [6] | ΔTm [6]
1 | CCC[C@H]1CNCc2c1[nH]c(=O)c(C#N)c2N1CCC2(CC1)CC2 | 7.02 | -2.51 | 12.8 | -0.0944 | 17.8 | 3.11 | 7.41 | -0.621 | 17.5 | -0.331 | 19.7 | -0.34
2 | CCC[C@@H]1CNCc2c1[nH]c(=O)c(C#N)c2N1CCC2(CC1)CC2 | 7.02 | -2.16 | 12.8 | -0.119 | 17.8 | -0.386 | 7.41 | -0.623 | 17.5 | -0.214 | 19.7 | -0.315
